Results reported in patent US8372832B2 (priority 2006, dated 2013).

Target: α7-subtype of nicotinic receptors (Rattus norvegicus, UniProt Q05941)
Experiment: biochemical
Format: binding

Sequence of α7-subtype of nicotinic receptors (Q05941 23-502): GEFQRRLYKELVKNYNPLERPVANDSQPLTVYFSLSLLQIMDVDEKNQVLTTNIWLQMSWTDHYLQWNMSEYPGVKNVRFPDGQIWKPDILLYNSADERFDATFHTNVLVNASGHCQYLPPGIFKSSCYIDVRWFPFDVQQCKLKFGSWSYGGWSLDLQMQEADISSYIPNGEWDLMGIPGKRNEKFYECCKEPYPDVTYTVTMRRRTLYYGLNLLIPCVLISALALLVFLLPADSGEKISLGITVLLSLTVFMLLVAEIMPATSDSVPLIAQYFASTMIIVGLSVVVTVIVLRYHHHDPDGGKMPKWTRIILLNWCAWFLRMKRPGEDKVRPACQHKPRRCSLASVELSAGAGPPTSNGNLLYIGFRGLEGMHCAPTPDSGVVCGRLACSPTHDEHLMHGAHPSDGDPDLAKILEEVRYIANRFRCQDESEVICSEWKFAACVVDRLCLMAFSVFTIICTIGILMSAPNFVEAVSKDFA

**Q.** How did the IC50 turn out when `Brc1ccc(-c2nnc(N3CCN4CCC3CC4)o2)o1` [Compound A1, 4-[5-(5-Bromo-furan-2-yl)-[1,3,4]oxadiazol-2-yl]-1,4-diaza-bicyclo[3.2.2]nonane] was run?
**A.** < 10 nM
